{"source": "paper PMC9854251", "about": "(Biochemistry, 2022)", "key": {"[1]": {"system": "hHINT1 WT", "details": "cited from earlier work"}, "[2]": {"target": "T1, hHINT2 R99A (Homo sapiens, UniProt Q9BX68, R99A)", "T1 sequence (Q9BX68 37-163 R99A limits assumed)": "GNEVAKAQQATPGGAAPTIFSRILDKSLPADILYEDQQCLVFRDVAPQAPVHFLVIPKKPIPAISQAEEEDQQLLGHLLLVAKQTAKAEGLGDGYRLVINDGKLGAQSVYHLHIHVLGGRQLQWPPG", "assay": "Stopped-flow burst-phase adenylation kinetics, hHINT2 R99A", "format": "biochemical"}, "[3]": {"target": "hHINT2 (Homo sapiens, UniProt Q9BX68)", "sequence (Q9BX68 37-163 limits assumed)": "as the sequence (Q9BX68 37-163 R99A limits assumed) above, with A63R counted along it", "assay": "Time course simulation", "format": "biochemical"}, "[4]": {"system": "hHINT1 WT", "details": "steady-state 25 °C, cited from earlier work"}, "[5]": {"target": "T2, hHINT2 R99Q (Homo sapiens, UniProt Q9BX68, R99Q)", "T2 sequence (Q9BX68 37-163 R99Q limits assumed)": "as the sequence (Q9BX68 37-163 R99A limits assumed) above, with A63Q counted along it", "assay": "Steady-state kinetics assay", "format": "biochemical", "details": "steady-state 25 °C"}, "[6]": {"target": "T3, hHINT1 Q62A (Homo sapiens, UniProt P49773, Q62A)", "T3 sequence (P49773 whole entry Q62A)": "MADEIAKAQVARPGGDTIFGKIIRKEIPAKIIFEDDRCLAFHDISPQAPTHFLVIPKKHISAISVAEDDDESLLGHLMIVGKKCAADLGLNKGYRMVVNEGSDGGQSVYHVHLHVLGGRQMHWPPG", "assay": "Steady-state kinetics assay", "format": "biochemical"}, "[7]": {"target": "hHINT1 (Homo sapiens, UniProt P49773)", "sequence (P49773 whole entry)": "as the sequence (P49773 whole entry Q62A) above, with A62Q counted along it", "assay": "Time course simulation", "format": "biochemical"}, "[8]": {"target": "T2, hHINT2 R99Q", "assay": "Stopped-flow burst-phase adenylation kinetics, hHINT2 R99Q", "format": "biochemical"}, "[9]": {"target": "T4, hHINT1 Q62R (Homo sapiens, UniProt P49773, Q62R)", "T4 sequence (P49773 whole entry Q62R)": "as the sequence (P49773 whole entry Q62A) above, with A62R counted along it", "assay": "Steady-state kinetics assay", "format": "biochemical", "details": "steady-state 25 °C"}, "[10]": {"target": "T1, hHINT2 R99A", "assay": "Steady-state kinetics assay", "format": "biochemical"}, "[11]": {"target": "T4, hHINT1 Q62R", "assay": "Stopped-flow burst-phase adenylation kinetics, hHINT1 Q62R", "format": "biochemical"}, "[12]": {"target": "T3, hHINT1 Q62A", "assay": "Stopped-flow burst-phase adenylation kinetics, hHINT1 Q62A", "format": "biochemical"}, "[13]": {"target": "T5, hHINT2 WT (Homo sapiens, UniProt Q9BX68)", "T5 sequence (Q9BX68 37-163 limits assumed)": "as the sequence (Q9BX68 37-163 R99A limits assumed) above, with A63R counted along it", "assay": "Stopped-flow burst-phase adenylation kinetics, hHINT2 WT", "format": "biochemical"}, "[14]": {"target": "T2, hHINT2 R99Q", "assay": "Isothermal titration calorimetry, hHINT2 R99Q", "format": "binding"}, "[15]": {"system": "hHINT1 WT", "details": "ITC; cited from earlier work"}, "[16]": {"target": "T5, hHINT2 WT", "assay": "Isothermal titration calorimetry, hHINT2 WT", "format": "binding"}, "[17]": {"details": "pH 7.2, read-out: k1, E+TpAd ⇆ E•TpAd"}, "[18]": {"details": "pH 7.2, read-out: k−1, E+TpAd ⇆ E•TpAd"}, "[19]": {"details": "time course simulation, 4.3 °C, hHINT2"}, "[20]": {"details": "time course simulation, 4.3 °C, hHINT2, k4 and k5 can be interchanged without altering the fit"}, "[21]": {"details": "time course simulation, 4.3 °C, hHINT1"}, "[22]": {"details": "time course simulation, 4.3 °C, hHINT1, k4 and k5 can be interchanged without altering the fit"}}, "note": "Values joined by “and” are separate entries in the source; they are usually repeats but may differ in a detail not shown here. Equal entries are not always repeated."}
{"smiles": "Nc1ncnc2c1ncn2[C@@H]1O[C@H](COP(=O)(O)NCCc2c[nH]c3ccccc23)[C@@H](O)[C@H]1O", "note": "[TpAd, adenosine tryptamine phosphoramidate monoester]", "values": [{"measurement": "k2 (adenylation rate constant)", "setting": "[1]; burst phase 25 °C", "result": "203 s⁻¹ and 203 ± 13 s⁻¹"}, {"measurement": "Kd", "setting": "[1]; read-out: KD (substrate binding), burst phase 25 °C", "result": "13 ± 2", "unit": "µM"}, {"measurement": "Kd", "setting": "[2]", "result": "6 ± 0.47", "unit": "µM"}, {"measurement": "KD R99A/WT Ratio", "setting": "[2]; burst phase 4 °C, hHINT2", "result": 1.10}, {"measurement": "k2 R99A/WT Ratio", "setting": "[2]; burst phase 4 °C, hHINT2", "result": 0.96}, {"measurement": "k2 (adenylation rate constant)", "setting": "[2]; burst phase 4 °C, hHINT2 R99A", "result": "86.4 ± 6.1", "unit": "s⁻¹"}, {"measurement": "fluorescence of bound TpAd relative to unquenched tryptamine", "setting": "[3]; TpAd bound to hHINT2, constraint giving excellent simulations", "result": "~ 75%"}, {"measurement": "kon", "setting": "[3]; [17]", "result": "> 5e+07", "unit": "M⁻¹ s⁻¹"}, {"measurement": "koff", "setting": "[3]; [18]", "result": "> 60", "unit": "s⁻¹"}, {"measurement": "k2, E•TpAd ⇆ E-NMP•Tp", "setting": "[3]; [19]", "result": "60.8 ± 2.5", "unit": "s⁻¹"}, {"measurement": "k3, E-NMP•Tp ⇆ E-NMP + Tp", "setting": "[3]; [19]", "result": ">1640", "unit": "s⁻¹"}, {"measurement": "k−2, E•TpAd ⇆ E-NMP•Tp", "setting": "[3]; [19]", "result": 0}, {"measurement": "k−3, E-NMP•Tp ⇆ E-NMP + Tp", "setting": "[3]; [19]", "result": 0}, {"measurement": "k−4, E-NMP + H20 ⇆ E’-NMP", "setting": "[3]; [19]", "result": 0}, {"measurement": "k−5, E’-NMP ⇆ E + NMP", "setting": "[3]; [19]", "result": 0}, {"measurement": "k4, E-NMP + H20 ⇆ E’-NMP", "setting": "[3]; [20]", "result": "1.34 s^−1 ± 0.14 s^−1"}, {"measurement": "k5, E’-NMP ⇆ E + NMP", "setting": "[3]; [20]", "result": ">34", "unit": "s⁻¹"}, {"measurement": "Km", "setting": "[4]", "result": "0.13 ± 0.02", "unit": "µM"}, {"measurement": "kcat", "setting": "[4]; substrate turnover", "result": "2.1 ± 0.1", "unit": "s⁻¹"}, {"measurement": "Km R99Q/WT Ratio", "setting": "[5]", "result": 0.92}, {"measurement": "kcat R99Q/WT Ratio", "setting": "[5]", "result": 1.04}, {"measurement": "kcat/Km R99Q/WT Ratio", "setting": "[5]", "result": 1.18}, {"measurement": "kcat decrease, hHINT1 Q62A vs wild-type", "setting": "[6]; steady-state", "result": 5, "unit": "fold"}, {"measurement": "Km Q62A/WT Ratio", "setting": "[6]; steady-state 25 °C, hHINT1", "result": 0.12}, {"measurement": "kcat Q62A/WT Ratio", "setting": "[6]; steady-state 25 °C, hHINT1", "result": 0.21}, {"measurement": "kcat/Km Q62A/WT Ratio", "setting": "[6]; steady-state 25 °C, hHINT1", "result": 1.87}, {"measurement": "kon", "setting": "[7]; [17]", "result": "> 9.5e+06", "unit": "M⁻¹ s⁻¹"}, {"measurement": "koff", "setting": "[7]; [18]", "result": "> 60", "unit": "s⁻¹"}, {"measurement": "k2, E•TpAd ⇆ E-NMP•Tp", "setting": "[7]; [21]", "result": "56.5 ± 2.5", "unit": "s⁻¹"}, {"measurement": "k3, E-NMP•Tp ⇆ E-NMP + Tp", "setting": "[7]; [21]", "result": ">2000", "unit": "s⁻¹"}, {"measurement": "k−2, E•TpAd ⇆ E-NMP•Tp", "setting": "[7]; [21]", "result": 0}, {"measurement": "k−3, E-NMP•Tp ⇆ E-NMP + Tp", "setting": "[7]; [21]", "result": 0}, {"measurement": "k−4, E-NMP + H20 ⇆ E’-NMP", "setting": "[7]; [21]", "result": 0}, {"measurement": "k−5, E’-NMP ⇆ E + NMP", "setting": "[7]; [21]", "result": 0}, {"measurement": "k4, E-NMP + H20 ⇆ E’-NMP", "setting": "[7]; [22]", "result": "0.41 ± 0.03", "unit": "s⁻¹"}, {"measurement": "k5, E’-NMP ⇆ E + NMP", "setting": "[7]; [22]", "result": ">100", "unit": "s⁻¹"}, {"measurement": "Kd", "setting": "[8]", "result": "5.45 ± 0.6", "unit": "µM"}, {"measurement": "KD R99Q/WT Ratio", "setting": "[8]; burst phase 4 °C, hHINT2", "result": 1.00}, {"measurement": "k2 R99Q/WT Ratio", "setting": "[8]; burst phase 4 °C, hHINT2", "result": 1.04}, {"measurement": "k2 (adenylation rate constant)", "setting": "[8]; burst phase 4 °C, hHINT2 R99Q", "result": "93.2 ± 5.0", "unit": "s⁻¹"}, {"measurement": "kcat Q62R/WT Ratio", "setting": "[9]", "result": 0.67}, {"measurement": "kcat/Km Q62R/WT Ratio", "setting": "[9]", "result": 0.73}, {"measurement": "decrease in steady-state turnover, hHINT2 R99A vs wild-type", "setting": "[10]; steady-state", "result": 2, "unit": "fold"}, {"measurement": "Km R99A/WT Ratio", "setting": "[10]; steady-state 25 °C, hHINT2", "result": 0.75}, {"measurement": "kcat R99A/WT Ratio", "setting": "[10]; steady-state 25 °C, hHINT2", "result": 0.46}, {"measurement": "kcat/Km R99A/WT Ratio", "setting": "[10]; steady-state 25 °C, hHINT2", "result": 0.65}, {"measurement": "Kd", "setting": "[11]", "result": "2.9 ± 0.2", "unit": "µM"}, {"measurement": "KD Q62R/WT Ratio", "setting": "[11]; burst phase 25 °C, hHINT1", "result": 0.2}, {"measurement": "k2 Q62R/WT Ratio", "setting": "[11]; burst phase 25 °C, hHINT1", "result": 0.89}, {"measurement": "k2 (adenylation rate constant)", "setting": "[11]; burst phase 25 °C, hHINT1 Q62R", "result": "180 ± 9", "unit": "s⁻¹"}, {"measurement": "Kd", "setting": "[12]", "result": "4.9 ± 0.5", "unit": "µM"}, {"measurement": "k2 Q62A/WT Ratio", "setting": "[12]; burst phase 25 °C, hHINT1", "result": 0.85}, {"measurement": "k2 (adenylation rate constant)", "setting": "[12]; burst phase 25 °C, hHINT1 Q62A", "result": "172 ± 6", "unit": "s⁻¹"}, {"measurement": "Kd", "setting": "[13]", "result": "5.44 ± 0.58", "unit": "µM"}, {"measurement": "k2 (adenylation rate constant)", "setting": "[13]; burst phase 4 °C, hHINT2 WT", "result": "89.7 s⁻¹ and 89.7 ± 5.1 s⁻¹"}]}
{"smiles": "O=C(CCc1c[nH]c2ccccc12)NS(=O)(=O)OC[C@H]1O[C@@H](n2cnc3c2ncn2ccnc32)[C@H](O)[C@@H]1O", "note": "[Inhibitor 1]", "values": [{"measurement": "Kd", "setting": "[14]", "result": "6.94 ± 0.51", "unit": "µM"}, {"measurement": "-TΔS", "setting": "[14]; ITC 25 °C, pH 7.2, hHINT2 R99Q", "result": "7.68 ± 0.55", "unit": "kcal/mol"}, {"measurement": "n (binding stoichiometry)", "setting": "[14]; ITC 25 °C, pH 7.2, hHINT2 R99Q", "result": 1.1}, {"measurement": "ΔH", "setting": "[14]; ITC 25 °C, pH 7.2, hHINT2 R99Q", "result": "-14.72 ± 0.10", "unit": "kcal/mol"}, {"measurement": "-TΔS", "setting": "[15]", "result": "8.19 ± 0.13", "unit": "kcal/mol"}, {"measurement": "Kd", "setting": "[16]", "result": "9.43 ± 0.45", "unit": "µM"}, {"measurement": "ΔH", "setting": "[16]; ITC 25 °C, 10 mM Tris, 150 mM NaCl, pH 7.2, hHINT2 WT", "result": "-10.54 ± 0.16", "unit": "kcal/mol"}, {"measurement": "-TΔS", "setting": "[16]; ITC 25 °C, pH 7.2, hHINT2 WT", "result": "3.69 ± 0.17", "unit": "kcal/mol"}, {"measurement": "n (binding stoichiometry)", "setting": "[16]; ITC 25 °C, pH 7.2, hHINT2 WT", "result": 0.80}, {"measurement": "ΔG", "setting": "[16]; ITC 25 °C, pH 7.2, hHINT2 WT", "result": "-6.84 ± 0.32", "unit": "kcal/mol"}]}
